One may read the EC50 as the concentration at which the effect is half-maximal. Usually CC50 stands for the concentration giving 50% cytotoxicity.

The record followed here is US9187496B2 (priority 2009, dated 2015).

The target of data set [1] is HCV genotype 1b Conl strain subgenomic luciferase replicon (Zluc). In words: Luciferase replicon assay, genotype 1b. The format is cell-based. Conditions: read-out: EC50 1b. The protocol:
(§1) The HCV luciferase replicon assay measures the ability of a test compound to inhibit HCV replication in cell culture after 3 days of treatment in a human hepatoma cell line (Huh-7) bearing a HCV replicon containing a luciferase-neomycin phosphotransferase fusion gene. The inhibition of HCV replication was measured by quantification of luciferase protein expression. Briefly, Huh-7 cells containing either the HCV genotype 1a H77 strain or genotype 1b Conl strain subgenomic luciferase replicon (H1a-luc or Zluc, respectively) were grown in DMEM containing glucose, L-glutamine and sodium pyruvate, 10% fetal bovine serum (FBS), 100 IU/mL penicillin, 100 μg/mL streptomycin, 2 mM GlutaMAX, non-essential amino acids and 0.25 (H1a-luc) or 0.5 (Zluc) mg/mL G418. GlutaMAX was obtained from Invitrogen, Corp.; all other media reagents were obtained from Mediatech, Inc. For dose-response testing, the cells were seeded in 96-well plates at 1×10^4 (H1a-luc) or 7.5×10^3 (Zluc) cells/well in a volume of 50 μL, and incubated at 37° C./5% CO2. Three hours after plating, 50 μL of ten 5-fold serial dilutions of compound were added, and cell cultures were incubated at 37° C./5% CO2 for 72 hours. In all cases, Huh-7 cells lacking the HCV replicon served as negative control. To assess luciferase expression, the media/compound was removed from the plates and ONE-glo Luciferase assay reagent (Promega) was added to each well. The assay plates were shaken for 3 minutes at room temperature and luciferase activity for each well was measured with a 1 sec read time on the Victor^3V multilabel counter using a 700 nm cut-off filter (Perkin Elmer). EC50 values were calculated from dose response curves from the resulting best-fit equations determined by Microsoft Excel and XLfit 4.1 software.

For data set [2], the system named is HCV genotype 2a-specific NS5A gene within the 1b-replicon. Kind of data set: Luciferase replicon assay, NS5A-intergenotypic stable cell line genotype 2a. Type of data set: cell-based. The conditions noted are these: read-out: EC50 2a.
Description: (§2) The nucleotide sequences of the NS5A region of genotype 2a (GenBank Accession #AB047639), genotype 3a (GenBank Accession #D17763), and genotype 4a (GenBank Accession#DQ418788) were synthesized by an outside vendor. The NS5A region of each of these genotypes included the first 11 amino acids of the protease recognition sequence of genotype 1b, as well as the last 10 amino acids of genotype 1b. The NS5A gene cassettes were excised with site specific restriction endonucleases and ligated into a ZS11-luciferase genotype 1b backbone (backbone contains the genotype 1b NS3 protease, NS4a, NS4b, and NS5b coding regions) with similarly cut restriction enzyme sites. Thus, the newly constructed plasmid contains a genotype 2a-, 3a- or 4a-specific NS5A gene within the 1b-replicon.
(§3) These new intergenotypic plasmids were used to establish stable cell lines. RNA was generated from the NS5A intergenotypic plasmids and used in conjunction with a lipofectin reagent to transfect a cured Huh7 cell line. Transfected cells were selected for with G418. After selection has occurred the stable cell lines were propagated, tested for luciferase activity, and RT-PCR with genotype specific primers (either 1a, 2a, 3a, or 4a). Stable cell lines containing the intergenotypic replicon were then fully sequenced and analysed for proper expression of NS3, NS5A and NS5B proteins.
(§4) Drug titration analysis was performed using the luciferase replicon assay described herein.
as §1
(Replicon systems follow genome replication, usually without infectious particles.)

Data set [3] concerns HCV genotype 3a-specific NS5A gene within the 1b-replicon. Kind of data set: Luciferase replicon assay, NS5A-intergenotypic stable cell line genotype 3a. Type of data set: cell-based. Conditions: read-out: EC50 3a.
Description: as §2, §3, §4, §1

Data set [4] has as its system HCV genotype 4a-specific NS5A gene within the 1b-replicon. Kind of data set: Luciferase replicon assay, NS5A-intergenotypic stable cell line genotype 4a. Type of data set: cell-based. The conditions noted are these: read-out: EC50 4a.
Description: as §2, §3, §4, §1

The test system of another data set is H1a-luc or Zluc cells. In words: Cytotoxicity evaluation in luciferase replicon cells (Cell Titer 96 AQueous One). Type of data set: cell-based, human. Conditions: Table 1B, cellular viability. Here is the method:
(§5) For cytotoxicity evaluation, H1a-luc or Zluc cells were treated with compounds as described above and cellular viability was monitored using the Cell Titer 96 AQueous One Solution Cell Proliferation Assay (Promega). Plates were then read at 490 nm in a Victor^3V 1420 multilabel counter (Perkin Elmer) and CC50 concentrations were determined using Microsoft Excel and XLfit 4.1 software.

Data set [5] has as its system Huh-7 cells containing HCV Con1 subgenomic replicon (GS4.1 cells). In words: HCV replicon assay (NS5A ELISA). Conditions: Hepatitis C virus, Huh-7; GS4.1 cells, 72 hrs, NS5A ELISA; read-out: EC50. Type of data set: cell-based. The gist of the method:
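GS4.1 cells dosed 3 h after seeding with ten 2-fold dilutions from 75 μM, or single 15 μM, in 0.5% DMSO for 72 h at 37° C; NS5A measured by ELISA (A-236 antibody, OPD, A492). EC50 from four-parameter sigmoidal fit of % inhibition.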

Data set [6] is described as follows: Cytotoxicity evaluation in GS4.1 cells (Cell Titer 96 AQueous One). The format is cell-based, human. Conditions: human, cellular viability. The protocol: For cytotoxicity evaluation, GS4.1 cells were treated with compounds as described above and cellular viability was monitored using the Cell Titer 96 AQueous One Solution Cell Proliferation Assay (Promega). CC50 values were determined from the % cytotoxicity versus concentration data with Tecan Magellan software as described above.

Data set [7] relates to HCV genotype 1a H77 strain (H1a-luc replicon / 1a-H77NS5a intergenotypic replicon). In words: Luciferase replicon assay, genotype 1a. Type of data set: cell-based. The conditions noted are these: Hepatitis C virus, read-out: EC50 1a, genotype 1a.
Description: To generate the 1a-H77NS5a intergenotypic plasmid, dual cut sites were inserted into the ZS11-luciferase genotype 1b backbone that would bracket the NS5a region almost in its entirety. Using PCR and 1a-H77 specific primers also containing the corresponding restriction enzyme sites, the NS5a gene was amplified from the 1a-H77 replicon. The ZS11-luciferase genotype 1b backbone and the genotype 1a NS5a PCR products were restriction enzyme digested and then ligated using standard molecular cloning techniques. The newly constructed plasmid contains the genotype 1a-specific NS5a gene where as the backbone remains 1b as described herein.
as §3, §4, §1

Data set [8] can be described thus: Cytotoxicity evaluation in luciferase replicon cells (Cell Titer 96 AQueous One). The format is cell-based, human. The conditions noted are these: human; Table 1B, cellular viability. Here is the method:
as §5

Each structure is given as a SMILES string. Read-outs that look alike come from different tables or passages of the source.

With `COC(=O)N[C@H](C(=O)N1CCC[C@H]1c1nc2ccc(-c3csc4c(C#Cc5cnc([C@@H]6CCCN6C(=O)[C@H](NC(=O)OC)c6ccccc6)[nH]5)csc34)cc2[nH]1)C(C)C` [Compound A206], the EC50 in [1] (genotype 1b, luciferase replicon, 72 hours) was below 0.1 nM; in data set [2] (genotype 2a), below 0.1 nM; in data set [3] (genotype 3a), below 0.1 nM; in data set [4] (genotype 4a), below 0.1 nM. The CC50 in the data set with H1a-luc or Zluc cells was above 75 µM.

With `COC(=O)N[C@H](C(=O)N1CCC[C@H]1c1ncc(-c2ccc(-c3csc4c(-c5ccc(-c6cnc([C@@H]7CCCN7C(=O)[C@@H](NC(=O)OC)C(C)C)[nH]6)cc5)csc34)cc2)[nH]1)C(C)C` [Compound A86, ((S)-1-((S)-2-(5-{4-[6-{4-{2-[(S)-1-((S)-2-methoxycarbonylamino-3-methyl-butyryl)-pyrrolidin-2-yl]-3H-imidazol-4-yl}-phenyl)-thieno[3,2-b]thiophen-3-yl]-phenyl}-1H-imidazol-2-yl)-pyrrolidine-1-carbonyl]-2-methyl-propyl}-carbamic acid methyl ester], the EC50 was below 1 nM in data set [5]; below 0.1 nM in [1] (Hepatitis C virus, 72 h); 1 to 10 nM in [2] (Hepatitis C virus); 1 to 10 nM in [3] (Hepatitis C virus); below 0.1 nM in data set [4] (Hepatitis C virus); 0.1 to 1 nM in data set [7]. The compound also came in with a CC50 in data set [6] of 10 to 75 µM. Besides, the CC50 at 72 h in data set [8] is 10 to 75 µM.

For the compound `COC(=O)N[C@H](C(=O)N1CCC[C@H]1c1ncc(-c2ccc(-c3csc4c(-c5cnc([C@@H]6CCCN6C(=O)[C@@H](NC(=O)OC)C(C)C)[nH]5)csc34)cc2)[nH]1)C(C)C` [Compound A15, [(S)-1-((S)-2-{4-[4-(6-{2-[(S)-1-((S)-2-methoxycarbonylamino-3-methyl-butyryl)-pyrrolidin-2-yl]-3H-imidazol-4-yl}-thieno[3,2-b]thiophen-3-yl)-phenyl]-1H-imidazol-2-yl}-pyrrolidine-1-carbonyl)-2-methyl-propyl]-carbamic acid methyl ester], the EC50 was below 1 nM in data set [5]; below 0.1 nM in data set [1] (Hepatitis C virus, 72 h); below 0.1 nM in [2] (Hepatitis C virus); 0.1 to 1 nM in data set [3] (Hepatitis C virus); below 0.1 nM in [4] (Hepatitis C virus); below 0.1 nM in [7]. The CC50 in [6] lay within 10 to 75 µM. For the same compound, in [8], the CC50 at 72 h lay within 10 to 75 µM.
